Earlier results as cited in patent US20240189327A1, “SYNERGISTIC CANNABINOID ESTERS, THEIR SALTS AND USES THEREOF” (LONDON PHARMACEUTICALS AND RESEARCH CORPORATION, priority 2021, published 2024).

What was measured:
[1] = in vivo
intraocular pressure = conditions: normotensive rabbit
[2] = pH 7.4

Compound	time to maximum plasma level [1] [h]	effect on intraocular pressure (intraocular pressure)	increase of aqueous solubility over the parent endocannabinoids [2]
C=C(C)[C@@H]1CCC(C)=C[C@H]1c1c(O)cc(CCCCC)cc1O [CBD, cannabidiol]	4 to 6		
N[C@H]1C(O)O[C@H](CO)[C@@H](O)[C@@H]1O (stereo partly shown) [glucosamine]	0.833		
CCCCC/C=C\C/C=C\C/C=C\C/C=C\CCCC(=O)NCCOP(=O)(O)O [phosphate ester pro-drug of anandamide]		reduced the intraocular pressure	> 16 500 fold
